# Assay results as given in patent US10252997B2, “Monocyclic compound” (Takeda Pharmaceutical Company Limited, priority 2015, dated 2019).
# What was measured:
# Human ACC1 = molecular target: T1, Human ACC1 (Homo sapiens, UniProt Q13085); test: Measurement of ACC1 inhibitory activity (Malonyl-CoA produced, RapidFire-mass spectrometry); assay type: biochemical; conditions: 10 μM of the test compound; read-out: ACC1 inhibitory rate (%) at 10 μM
# T1 construct: His6 (from vector pFAST-BacHTc; purified on Ni-NTA) (N); made in house; host or cells: SF-9 insect cells, recombinant baculovirus BAC-ACC1
# Procedure: (1) Cloning of Human ACC1 Gene and Preparation of Recombinant Baculovirus
# Human ACC1 gene was cloned by PCR using a human liver cDNA library (Clontech) as a template and Primer 1 and Primer 2 shown below. Primer 1 and Primer 2 were prepared by adding SalI, NotI restriction enzyme recognition sequences based on the information of the base sequence of human ACC1 gene (Genbank Accession U19822).
# PCR was performed using Pyrobest DNA polymerase (TAKARA BIO INC.). The obtained PCR product was cloned to pT7 Blue vector (Novagen) and after confirmation of the base sequence, digested with restriction enzymes SalI and […]. The obtained DNA fragment was inserted into pFAST-BacHTc (Invitrogen) digested with restriction enzymes SalI and […] to give expression plasmid ACC1/pFAST-BacHTc.
# Using the expression plasmid ACC1/pFAST-BacHTc and BAC-TO-BAC Baculovirus Expression System (Invitrogen), virus stock BAC-ACC1 of recombinant Baculovirus was prepared.
# (2) Preparation of ACC1 Protein
# SF-9 cells (Invitrogen) were inoculated to a medium (10 L) for insect cells (Sf-900IISFM medium (Invitrogen) containing 5% fetal bovine serum (Trace), 50 mg/L Gentamicin (Wako Pure Chemical Industries, Ltd.) and 0.1% Pluronic F-68 (Invitrogen)) at 1.0×10^6 cells/mL, and cultured with shaking in Wave Bioreactor (GE Healthcare) at 27° C., 20 rpm, rocking angle 100, oxygen concentration 30%.
# On day 2 of the culture, recombinant Baculovirus BAC-ACC1 was added, and the cells were cultured for 3 days. The culture medium was centrifuged at 4000×g for 10 min to give virus-infected cells. The cells were washed with phosphate buffered saline (Invitrogen) and centrifuged under the same conditions. The obtained cells were cryopreserved at −80° C.
# The cryopreserved cells were thawed in ice, and suspended in 800 mL of 25 mM HEPES buffer (pH 7.5) containing 10% Glycerol, 0.3 M NaCl, 1 mM EDTA, 25 mM Sodium β-Glycerophosphate and 1 mM Sodium Orthovanadate, and supplemented with Complete Protease Inhibitor (Roche). The obtained suspension was homogenized two times in a polytron homogenizer (Kinematica) at 20,000 rpm for 20 sec. The obtained cell disruption solution was clarified by centrifugation at 186,000×g for 60 min, and the supernatant was passed through Ni-NTA Superflow Cartridges (5 mL) (QUIAGEN). Furthermore, it was washed with 25 mM HEPES buffer (pH 7.5) containing 20 mM Imidazole and 0.3 M NaCl, and eluted with 25 mM HEPES buffer (pH 7.5) containing 250 mM Imidazol and 0.3 M NaCl. The eluate was concentrated by Amicon Ultra-15 (Nihon Millipore K.K.) having a fraction molecular weight of 50K. The obtained concentrate was subjected to gel filtration with 50 mM HEPES buffer (pH 7.5) containing 10 mM MgCl2, 2 mM dithiothreitol, 10 mM tripotassium citrate and 0.3 M NaCl by using HiLoad 26/60 Superdex200 prep grade gel filtration column (GE Healthcare) to give ACC1. The obtained ACC1 was cryopreserved at −80° C.
# (3) Measurement of ACC1 Inhibitory Activity
# ACC1 obtained in the above-mentioned (2) was diluted with an enzyme reaction buffer (50 mM HEPES (pH 7.5), 10 mM MgCl2, 10 mM Tripottasium Citrate, 2 mM Dithiothreitol, 0.001% Fatty acid free BSA) to a concentration of 0.2 μg/ml, and the mixture was added to each well of a 384 well assay plate by 10 μl. A test compound dissolved in dimethyl sulfoxide (DMSO) was diluted with an enzyme reaction buffer, and the resulting solution (5 μl) was added to each well. The mixture was incubated at room temperature for 60 min. Then, a substrate solution (50 mM KHCO3, 200 μM ATP, 200 μM Acetyl-CoA, 5 μl) was added to each well, and the mixture was reacted at room temperature for 30 min. The reaction was quenched by adding a reaction quenching liquid (1.3% formic acid, 0.2 μM Malonyl-^13C3-CoA) by 60 μL each to the obtained reaction mixtures (test compound addition group).
# In addition, a reaction was performed in the same manner as above and without adding the test compound (test compound non-addition group). […]
# HCT116 cells = test: Growth inhibitory activity on HCT116 cell (CellTiter-Glo); assay type: cell-based; conditions: Homo sapiens, HCT-116, 72 h; test compound 1 μM, 3 days; read-out: HCT116 cell proliferation inhibitory rate (%) at 1 μM
# Procedure: The growth inhibitory activity of the compound on HCT116 cell was evaluated by the following method.
# HCT116 cells were seeded in a 384 well blackplate at 900 cells/[…]/well, and maintained in an assay medium (RPMI medium (Wako) containing 2% fetal bovine serum, 50 Unit/mL penicillin and […] streptomycin (Invitrogen)). The next day, a test compound dissolved in dimethyl sulfoxide (DMSO) was diluted with the assay medium, and the obtained compound solution was added by […] to each well of a plate containing HCT116 cells, and incubated at 37° C., 5% CO2 (test compound addition group).
# A similar reaction was performed without adding a test compound (test compound non-addition group).
# Furthermore, a similar reaction was performed under the conditions without adding HCT116 cell and a test compound (control group).
# After 3 days, […] of a CellTiter-Glo reagent (Promega KK) was added to the well, and the mixture was stirred for 10 min. Thereafter, the luminescence value of each well was measured by the EnVision™ multilabel counter (Perkin Elmer Inc.).
# The HCT116 cell proliferation inhibitory rate (%) of the test compound was determined by the following calculation formula. (1−(luminescence of test compound addition group−luminescence of control group)÷(luminescence of test compound non-addition group−luminescence of control group))×100
# The HCT116 cell proliferation inhibitory rates (%) of the test compound (1 μM) are shown below.
inhibition at 10 µM (Human ACC1) [%],Compound,inhibition at 1 µM (HCT116 cells) [%]
97,"CC(=O)NC(C)c1ccc(OCc2c(F)cc(Oc3cccc(OCC4CC4)c3)cc2F)nn1 (stereo not shown) [Example 78, N-(1-(6-((4-(3-(cyclopropylmethoxy)phenoxy)-2,6-difluorobenzyl)oxy)pyridazin-3-yl)ethyl)acetamide]",12
97,"CC(=O)NC(C)CCc1coc(-c2ccc(Oc3cccc(OCC4CC4)c3)cc2)n1 (stereo not shown) [Example 83, N-(4-(2-(4-(3-(cyclopropylmethoxy)phenoxy)phenyl)-1,3-oxazol-4-yl)butan-2-yl)acetamide]",28
